Source: patent US20100210553A1, “USE OF THE PEPTIDE ASN-ASP-ASP-CYS-GLU- LEU-CYS-VAL-ASN-VAL-ALA-CYS-THR-GLY-CYS-LEU ALONE OR IN COMBINATION WITH THE PEPTIDE THR-THR-SER-GLN-VAL- ARG-PRO-ARG AS A THERAPEUTIC AGENT” (priority 2007, published 2010)
Ends that are not written are not given here.

Key:
[1] = test system: hepatitis B virus (HBV) ayw strain; assay: HBV experimental assay system (HepG2-2.2.15, TaqMan PCR of secreted HBV DNA); format: cell-based; details: 10 micrograms per ml; HepG2-2.2.15, six days; combination 0.95 mole peptide 1 and 1.05 mole peptide 2
Source text: HepG2-2.2.15 is a stable cell line containing the hepatitis B virus (HBV) ayw strain genome (ATCC Cat. No. CRL-11997). Antiviral compounds blocking any late step of viral replication such as transcription, translation, pregenome encapsidation, reverse transcription, particle assembly and release can be identified and characterized using this cell line. In this assay, an active compound will reduce the production of secreted HBV from cells, measured by utilizing real time quantitative PCR (TaqMan) assay to directly and accurately measure HBV DNA copies.
HepG2-2.2.15 cells were plated in 96-well microtiter plates. After 16-24 hours the confluent monolayer of HepG2-2.2.15 cells was washed and the medium was replaced with complete medium containing test peptides—10 micrograms per ml—in duplicate. […] Six days following the initial administration of the peptides, the cell culture supernatants was collected, treated with pronase and DNAse and then used in a real-time quantitative TaqMan PCR assay. The PCR-amplified HBV DNA was detected in real-time by monitoring increases in fluorescence signals that result from the exonucleolytic degradation of a quenched fluorescence probe molecule that hybridizes to the amplified HBV DNA. […] Antiviral activity was calculated from the reduction in HBV DNA levels (% virus control). […]

[2] = test system: Streptococcus pneumoniae; assay: Streptococcus pneumoniae assay; format: cell-based; details: 10 micrograms per ml; 5x10^5 CFU/mL, read visually; combination 0.95 mole peptide 1 and 1.05 mole peptide 2 and all other molar ratios from 1:100 to 100:1
[3] = test system: murine spleen cells; assay: Th1/Th2 cytokine profiling assay (Ovalbumin-restimulated spleen cells, CBA Kit); format: cell-based, mouse; details: 10 micrograms per ml, Ovalbumin restimulation, 72 hours, combination 0.95 mole peptide 1 and 1.05 mole peptide 2
[4] = test system: Primary Human endothelial cells (HUVEC); assay: Endothelial cell migration assay; format: cell-based; details: 10 micrograms per ml, 22 hours
[5] = test system: HUVEC; assay: Endothelial tube formation assay; format: cell-based, human; details: 10 micrograms per ml, 20 hours
Protocol: The endothelial tube formation assay is based on the ability of endothelial cells to form three-dimensional capillary-like tubular structures when cultured on a gel of basement membrane extract. The endothelial tube formation assay represents a powerful model for studying inhibition and induction of angiogenesis. Pre-labeled HUVEC with Calcein AM were seeded in a 96-well culture plate coated with extracellular metrix (Chemicon international Cat. ECM625) and treated with—10 micrograms per ml—test peptides in full growth medium. Positive control was vehicle only. The endothelial cells were allowed to form tubes for 20 hours and were then examined under an inverted fluorescent microscope. Duplicate wells for each treatment were photographed and quantitatively analyzed for an average tubule length using image analysis software ImageProPlus. Raw data were expressed as average tubule lengths in pixels ±standard deviation. Statistic p values were computed using the Student's t-test.

[6] = test system: HCMV strain AD169; assay: HCMV plaque formation assay in MRC-5 cells; details: 10 micrograms per ml, 7-10 days

## Asn-Asp-Asp-Cys-Glu-Leu-Cys-Val-Asn-Val-Ala-Cys-Thr-Gly-Cys-Leu-OH (NDDCELCVNVACTGCL-OH; cysteine pairing not given here) [Peptide 1]
[1]
  inhibition of HBV replication as compared to the virus control infection: no effect
[2]
  inhibition of the growth of Streptococcus pneumoniae: 100%
[3]
  change of the production of IL-5: did not significantly change
  induction of the production of IFN-γ: 80.8%
  induction of the production of IL-2: 66.9%
  induction of the production of IL-4: 143.8%
  induction of the production of TNF-alpha: 57.1%
[4]
  inhibition of the migration of human endothelial cells: 14%
[5]
  inhibition of the tube formation of human endothelial cells: 18%
[6]
  inhibition of HCMV plaque formation as compared to the virus control experiment: did not inhibit

## Thr-Thr-Ser-Gln-Val-Arg-Pro-Arg-OH (TTSQVRPR-OH) [Peptide 2]
[1]
  inhibition of HBV replication as compared to the virus control infection: 31%
[2]
  inhibition of the growth of Streptococcus pneumoniae: 100%
[3]
  change of the production of IL-5: did not significantly change
  induction of the production of IFN-γ: 47.4%
  induction of the production of IL-2: 24%
  induction of the production of IL-4: 103.9%
  induction of the production of TNF-alpha: 43.7%
[4]
  inhibition of the migration of human endothelial cells: 13%
[5]
  inhibition of the tube formation of human endothelial cells: 24%
[6]
  inhibition of HCMV plaque formation as compared to the virus control experiment: did not inhibit
